Patent US12122821B2, “Regulation of glucose metabolism using anti-CGRP antibodies” (H. LUNDBECK A/S, priority 2013, dated 2024)

Legend:
HFD rats = experiment: Fasting blood glucose, plasma insulin, C-peptide and HOMA-IR in HFD rats (Example 2); assay type: in vivo, rat; settings: vs HFD vehicle
Protocol: After 6 weeks of HFD rats were randomized to treatment groups according to their glucose intolerance (AUC calculation during an oral glucose tolerance test (OGTT)) and their HOMA-IR (insulin resistance index).
Body weight and food consumption were measured 3 times per week until 10 days of treatment. HOMA-IR was measured on day 10 and 15. A 2-step clamp (5 mU/kg/min and then 15 mU/kg/min insulin) was performed on day 15 or 16. Glucose Turnover (GTO) was assessed using ^3H-glucose tracer infusion during the clamp procedure.
Ab14 (10, 30, 100 mg/kg) and the vehicle were weekly administered via i.v. route (via the caudal vein, under isoflurane anaesthesia), in the morning, on day 1 and day 8 of treatment.
Before the start of the treatment (the day of OGTT) and on day 10 of treatment, all rats were fasted from 08:00 am. At 01:30 pm, blood was collected from the from the tip tail (40 μL on EDTA). Blood glucose (using glucometers) and plasma insulin (ELISA method) were measured.
Plasma insulin and C peptide levels were measured just before the infusion starts (˜T-30 min.), at the end of the steady state of step 1 (T2 h) and step 2 (T3.5 h). For that, blood collection was performed from the tip of the tail (˜100 μL, on EDTA).

Normal rats = experiment: Individual tissue glucose utilization rate (14C-2-DOG) during clamp in normal rats (Example 1); assay type: in vivo, rat; settings: Ab14 100 mg/kg i.v., metformin 500 mg/kg p.o., vs vehicle
Protocol: To determine the individual tissue glucose utilization rate, a bolus injection of 100 μCi per rat of deoxy-D-glucose 2-^14C (^14C-2-DOG) through the femoral vein was performed 60 min before the end of the D-[3-^3H]-glucose infusion. Plasma ^14C-2-DOG disappearance and glucose concentration were determined in 10 μL drops of blood sampled from the tip of the tail vein at 0, 5, 10, 15, 20, 25, 30, 45, and 60 minutes after the injection. At the end of the experiment, vastus lateralis (VL), extensor digitorum longus (EDL) and soleus muscles, epididymal and inguinal white adipose tissues, heart apex, and skin (as negative control) were dissected, flash frozen and kept at −80° C. A piece of each tissue was dissolved in 1M NaOH and then neutralized with 1M HCl. […]. D-2-^14C deoxyglucose was differentially precipitated by the use of a zinc hydroxide (0.3M) solution or a perchloric acid solution (6%). Both radioactivity contents were measured to evaluate the glucose uptake expressed as ng/mg/min.

[1] = system: Zucker diabetic fatty (ZDF) rat; experiment: Oral glucose tolerance test on day 26 in ZDF rats (Example 3); assay type: in vivo
Protocol: The oral glucose tolerance test (OGTT) was performed as follows. On day 25, rats were fasted at ˜6:00 pm and an oral glucose tolerance test was performed the day after (on day 26). At ˜8:00 am (T-60) a blood collection (110 μL, EDTA) was performed for biochemical parameters measurements. One hour after (˜09:00 am), an oral glucose bolus (1.5 g/kg) was administered (T0). Blood glucose was measured (glucometer or colorimetric method in case of high glycaemia) on T-60, T0, T15, T30, T60, T90, T120, and T180 minutes. Area under the curve (AUC) was calculated based on the blood glucose values measured at T0. Plasma insulin and C-peptide were measured (ELISA method) on T-60, T15 (·40 μL of blood, EDTA), and T30 minutes (·40 μL of blood, EDTA).

[2] = system: Zucker diabetic fatty (ZDF) rat; experiment: Plasma triglycerides, free fatty acids and cholesterol in ZDF rats (Example 3); assay type: in vivo; settings: for increase of free fatty acids levels: vs vehicle ZDF, not significant
Protocol: For the groups treated with AB14, the antibody was administered once weekly via the caudal vein (i.v., 5 mL/kg) on days 1, 8, 15, and 22 at two different doses 20 mg/kg/week (groups 3 and 7) or 60 mg/kg/week (groups 4 and 8). All other groups were treated once weekly with vehicle 1 (i.v., 5 mL/kg). The intravenous treatments were performed in the morning on day 1, 8, 15, and 22 while under isoflurane anaesthesia. The volume of administration was individually adapted according to the most recent body weight.
All other groups were treated daily with vehicle 2 (p.o., 5 mL/kg) for 28 days. The most recent body weight was used to calculate the average volume of administration in each group.
A fasting (6 hours on day 0 from 8:00 am to 02:00 pm, and overnight on day 12, 19 and 26 from ˜6:00 pm to ˜8:00 am) was performed before each blood collection. Blood was collected at ˜2:00 pm, from the tip of the tail, on day 0 (before screening, 150 μL, potassium EDTA), and at ˜8:00 am prior to dosing on days 12 (110 μL, potassium EDTA), 19 (150 μL, potassium EDTA) and 26, (110 μL, potassium EDTA).
Fasting blood glucose (glucometers) was measured on days 0, 12, 19, and 26. Fasting plasma insulin, peptide-C (ELISA method), free fatty acids, triglycerides, total cholesterol (colorimetric method), and HDL-cholesterol (phosphotungstate precipitation, colorimetric method) were measured on day 0, and prior to dosing on days 12, 19, and day 26. Non HDL-cholesterol was calculated as total cholesterol—HDL-cholesterol. Fructosamine was measured on days 0, 19 and 28. HbA1c (DCA 2000) was measured on days 0 and 28.

[3] = system: Zucker diabetic fatty (ZDF) rat; experiment: Pancreas insulin and proinsulin content in ZDF rats (Example 3); assay type: in vivo; settings: day 28, AB14 60 mg/kg, metformin 200 mg/kg/day, alone or combined, vs vehicle
Protocol: After 2 hours of food restriction (from 8:00 am to 10:00 am) 80 rats from the study were anesthetized on day 28 with isoflurane. Blood was collected (˜3000 μL from abdominal vein, on K2-EDTA) for the determination of AB14 plasma concentrations. Plasma (3 aliquots of ˜200 μL) was kept at −80° C. until testing. The pancreas tissue was then excised. Rats were euthanized by incision of the abdominal vein and aorta.
Each pancreas was divided into 2 parts (longitudinal cut).
Each pancreas sample was homogenized in an acid buffer, and insulin and proinsulin content were measured using ELISA kits in the following groups: […]

[4] = day 10, Ab14 10, 30, 100 mg/kg/week, metformin 200 mg/kg/day

Compound: CN(C)C(=N)N=C(N)N [metformin, reference compound]
- decrease of HOMA-IR (HFD rats; [4]): 36%
- decrease of fasting plasma insulin (HFD rats; [4]): 37%
- fasting blood glucose (HFD rats; [4]): no effect
- decrease of plasma C-peptide level (HFD rats; day 15, metformin 200 mg/kg/day): 13%
- decrease of fasting plasma insulin (HFD rats; day 15, metformin 200 mg/kg/day, ns): 11%
- change of glucose utilization in the heart (Normal rats): −39%
- glucose utilization rate in white adipose tissues (deep and subcutaneous) (Normal rats): did not affect
- increase of glucose utilization in mixed vastus lateralis muscle (VL) (Normal rats): 49%
- increase of glucose utilization in glycolytic extensor digitorum longus muscle (EDL) (Normal rats; NS): 19%
- plasma insulin and C-peptide levels 15 and 30 minutes after the glucose load ([1]; day 26, metformin 200 mg/kg/day, pioglitazone 10 mg/kg/day, vs vehicle): slightly increased
- reduction in blood glucose AUC (OGTT) ([1]; day 26, pioglitazone 10 mg/kg/day, metformin 200 mg/kg/day, vs vehicle ZDF): 6%
- increase of plasma triglycerides levels ([2]; day 12, metformin 200 mg/kg/day, vs vehicle): 26%
- increase of free fatty acids levels ([2]; day 12, metformin 200 mg/kg/day): 14%
- increase of plasma triglycerides levels ([2]; day 19, metformin 200 mg/kg/day, vs vehicle): 40%
- increase of free fatty acids levels ([2]; day 19, metformin 200 mg/kg/day): 25%
- increase of plasma triglycerides levels ([2]; day 26, metformin 200 mg/kg/day, vs vehicle): 49%
- increase of free fatty acids levels ([2]; day 26, metformin 200 mg/kg/day): 8%
- non HDL-cholesterol levels ([2]; metformin 200 mg/kg/day alone or in combination with AB14, vs vehicle): no effect
- plasma HDL-cholesterol ([2]; metformin 200 mg/kg/day alone, vs vehicle): no effect
- pancreas proinsulin levels [3]: completely prevented reductions
- pancreatic insulin levels [3]: significantly increased
